Earlier results as cited in patent US20040042990A1, “Composition containing oxidation-sensitive hydrophilic active principle and maleic anhydride copolymer, and use thereof” (L'OREAL, Paris, France, priority 2002, published 2004).

Tested on: reconstructed skin

O=C1O[C@H]([C@@H](O)CO)C([O-])=C1OP(=O)([O-])[O-].O=C1O[C@H]([C@@H](O)CO)C([O-])=C1OP(=O)([O-])[O-].[Mg+2].[Mg+2].[Mg+2] [magnesium ascorbyl phosphate]
number of fibroblasts in the lattice (reconstructed skin culture medium): significant increase
synthesis of proteins of the extracellular matrix (collagens IV and VII, laminin) (reconstructed skin, in particular at the dermoepidermal junction): significant stimulation
